Data on 2 compounds can be found in article PMC12727973, “Off-target autophagy disruption associated with a novel liver toxicity in dogs for a highly basic heterobifunctional protein degrader” (Frontiers in Pharmacology, 2025).

Structures are written as SMILES.

One series relates to LC3B. In words: LC3B lipidation immunoblot in primary cholangiocytes. It counts as cell-based, human. The following applies: 3 h, 300 μM. On the technique in general: Immunoblotting shows a protein as a band on a membrane.
The test system of series [1] is primary human cholangiocytes. In words: Co-treatment with V-ATPase inhibitor bafilomycin in cholangiocytes.

Procedure for LC3B: Cells were treated with compounds at concentrations indicated for 3 h (immunoblotting), 18 h (proteomics), or 48 h (compound uptake) using DMSO vehicle content normalized across wells, up to 0.2%. 48 h was selected for compound uptake experiments to match the cell viability assay conditions; 18 h was selected for the initial assessment of proteome-wide changes leading to and accompanying cytotoxicity; 3 h to observe pathway changes with minimal confounding effects of cytotoxicity. […] Following compound incubation, cells were washed twice with phosphate buffer saline (PBS) and, except for compound uptake studies, lifted off plates with Accumax (Sigma-Aldrich A7089). Cells were pelleted at 700 × g for 5 min, washed with PBS, and pellets were stored at −80 °C for later sample preparation.
Lysate corresponding to 20 µg protein was combined with LDS Buffer (1X final, Thermo #NP0007) and 1 M dithiothreitol stock (100 mM final), heat denatured at 95 °C for 10 min, and loaded into the wells of a NuPage Bis-Tris Mini Protein Gel (Thermo #NP0321). Proteins were separated at 200 V for 30–40 min using a XCell SureLock Mini-Cell (Thermo #EI0001) and MES SDS Running Buffer (Thermo #NP0002).
Proteins were next transferred to a PVDF membrane (Thermo #IB24002) with an iBlot 2 Gel Transfer Device (Invitrogen #IB21001) using the standard 7 min method. […]

With `CCN(CC)CCCC(C)Nc1ccnc2cc(Cl)ccc12` (stereo not shown) [CQ, chloroquine diphosphate], the LC3B-II/LC3B-I in the series with LC3B turned out to be 2.1.

For the compound `CO/C1=C\C(C)=C\[C@@H](C)[C@@H](O)[C@@H](C)C/C(C)=C/C=C/[C@H](OC)[C@@H]([C@@H](C)[C@@H](O)[C@H](C)[C@@]2(O)C[C@@H](O)[C@H](C)[C@@H](C(C)C)O2)OC1=O` [BafA1, Bafilomycin A1], the Cytotoxicity alone result in series [1] (BafA1 alone, longer timepoints) is recorded as “cytotoxic at longer timepoints”. The “Effect on Compound X-induced cytotoxicity” value in series [1] (co-treatment with Compound X, <24 h) is on record as “fully rescued compound-induced cytotoxicity”. The “Effect on LC3B lipidation by Compound X” value in series [1] (co-treatment, 100 nM or 2.5 nM BafA1, 3 h) is recorded as “reduced the LC3B lipidation by Compound X”.
